Results as given in ChEMBL document CHEMBL1201862, “PubChem BioAssay data set” (2004).
Calls of active or inactive are those of the source.

How the values were obtained:
[1] = target: Nuclear receptor subfamily 5 group A member 2 (Homo sapiens, UniProt O00482); assay type: functional, cell-based;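 further: HEK293T cells transfected with LRH-1 and a StAR promoter luciferase reporter; potency for inhibitors that lower LRH-1 driven reporter light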
[2] = StAR promoter reporter inhibition counter-screen, dose response, counter-screen for LRH-1 inverse agonist project, cell-based, luminescence, luciferase reporter (AID 651969); assay type: functional
Steroidogenic factor 1 = Steroidogenic factor 1 (Homo sapiens, UniProt Q13285); experiment: Counterscreen for inverse agonists of the liver receptor homolog-1 (LRH-1; NR5A2): Luminescence-based cell-based high throughput dose response assay to identify inverse agonists of the Steroidogenic Factor 1 Nuclear Receptor (SF1; NR5A1).; assay type: functional
Sequence of Steroidogenic factor 1 (Q13285 whole entry): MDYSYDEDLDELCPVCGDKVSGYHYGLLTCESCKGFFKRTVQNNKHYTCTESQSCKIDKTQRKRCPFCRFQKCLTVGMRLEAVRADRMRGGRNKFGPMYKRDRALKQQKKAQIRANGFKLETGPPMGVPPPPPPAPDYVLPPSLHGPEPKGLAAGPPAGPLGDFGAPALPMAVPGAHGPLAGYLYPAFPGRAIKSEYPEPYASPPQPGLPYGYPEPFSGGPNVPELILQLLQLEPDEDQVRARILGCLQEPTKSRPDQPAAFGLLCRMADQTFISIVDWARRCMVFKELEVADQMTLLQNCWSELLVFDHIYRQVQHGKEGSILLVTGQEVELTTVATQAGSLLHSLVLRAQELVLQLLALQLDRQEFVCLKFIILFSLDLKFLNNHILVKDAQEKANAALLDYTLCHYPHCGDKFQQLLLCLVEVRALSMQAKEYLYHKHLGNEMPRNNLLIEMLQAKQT

[3] = cytotoxicity toward NIH3T3 fibroblasts, dose response, counter-screen, cell-based, ATP luminescence, mouse fibroblasts (AID 2010); assay type: functional;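 further: cells exposed to compound for about 90 hours before reading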
[4] = inhibitors of intracellular T. cruzi replication, confirmation, NIH3T3 host cells, beta-gal luminescence (AID 2044); assay type: functional, cell-based;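 further: intracellular parasites grown in NIH/3T3 mouse fibroblasts as host cells; luminescent beta-galactosidase reporter signal from transgenic T. cruzi replicating inside host cells; inhibitors lower the luminescence signal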
Albumin = Albumin (Bos taurus, UniProt P02769); experiment: Counterscreen for inhibitors of T-cell receptor (TCR)-CD3 interaction: Fluorescence-based biochemical high throughput dose response assay to identify inhibitors of T-cell receptor (TCR)-CD3 interaction using a TAMRA-labeled BSA probe.; assay type: functional
Sequence of Albumin (P02769 whole entry): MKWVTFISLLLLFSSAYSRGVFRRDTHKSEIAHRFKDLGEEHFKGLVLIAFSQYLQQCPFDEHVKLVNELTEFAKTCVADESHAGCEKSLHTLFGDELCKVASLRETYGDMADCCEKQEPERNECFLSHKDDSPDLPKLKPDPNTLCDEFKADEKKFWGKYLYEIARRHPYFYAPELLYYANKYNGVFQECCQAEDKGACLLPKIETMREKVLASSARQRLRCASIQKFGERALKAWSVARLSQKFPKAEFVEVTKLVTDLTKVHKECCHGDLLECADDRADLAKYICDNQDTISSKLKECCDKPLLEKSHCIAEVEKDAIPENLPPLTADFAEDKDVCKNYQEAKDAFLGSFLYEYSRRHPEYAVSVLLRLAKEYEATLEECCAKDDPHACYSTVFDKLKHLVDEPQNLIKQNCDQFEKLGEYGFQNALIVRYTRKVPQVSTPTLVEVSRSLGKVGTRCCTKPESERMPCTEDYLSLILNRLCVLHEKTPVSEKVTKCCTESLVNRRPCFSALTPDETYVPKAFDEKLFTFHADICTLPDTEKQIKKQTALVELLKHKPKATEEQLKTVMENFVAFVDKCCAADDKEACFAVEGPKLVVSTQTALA

Interleukin-8 = target: T1, Interleukin-8 (Homo sapiens, UniProt P10145); experiment: Dose Response confirmation of uHTS small molecule hits for cystic fibrosis induced NFkb Inhibitors in a PAF-induced IL8 counterscreen.; assay type: functional; settings: read-out: IC50_Mean
T1 sequence (P10145 whole entry): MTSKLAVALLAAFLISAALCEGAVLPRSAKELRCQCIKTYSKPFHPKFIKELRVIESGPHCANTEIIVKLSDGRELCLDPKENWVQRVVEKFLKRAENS

[5] = target: T2, Trace amine-associated receptor 1 (Homo sapiens, UniProt Q96RJ0); experiment: Counterscreen for agonists of the human trace amine associated receptor 1 (hTAAR1): Fluorescence-based cell-based high throughput dose response assay to identify hTAAR1 agonist that also desensitize TAAR1 receptor response.; assay type: functional
T2 sequence (Q96RJ0 whole entry): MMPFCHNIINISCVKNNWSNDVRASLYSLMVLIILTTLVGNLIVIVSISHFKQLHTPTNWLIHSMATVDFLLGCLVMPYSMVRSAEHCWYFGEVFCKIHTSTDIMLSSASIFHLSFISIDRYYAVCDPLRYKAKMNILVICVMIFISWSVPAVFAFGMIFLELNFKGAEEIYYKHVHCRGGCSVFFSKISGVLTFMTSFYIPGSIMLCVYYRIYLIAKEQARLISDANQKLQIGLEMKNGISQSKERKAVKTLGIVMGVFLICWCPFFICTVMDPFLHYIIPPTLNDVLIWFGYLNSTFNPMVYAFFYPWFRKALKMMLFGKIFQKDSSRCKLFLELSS

cells [6] = assay type: functional, cell-based
cells [7] = assay type: functional, cell-based; remark: listed apart in the source
[8] = target: T2, Trace amine-associated receptor 1; experiment: Fluorescence-based cell-based high throughput dose response assay to identify agonists of the human trace amine associated receptor 1 (TAAR1).; assay type: functional
Protein Wnt-3a = Protein Wnt-3a (Mus musculus, UniProt P27467); experiment: SAR analysis of small molecule antagonists of Gli-SUFU in a Wnt3a luminescent reporter assay.; assay type: functional
Sequence of Protein Wnt-3a (P27467 whole entry): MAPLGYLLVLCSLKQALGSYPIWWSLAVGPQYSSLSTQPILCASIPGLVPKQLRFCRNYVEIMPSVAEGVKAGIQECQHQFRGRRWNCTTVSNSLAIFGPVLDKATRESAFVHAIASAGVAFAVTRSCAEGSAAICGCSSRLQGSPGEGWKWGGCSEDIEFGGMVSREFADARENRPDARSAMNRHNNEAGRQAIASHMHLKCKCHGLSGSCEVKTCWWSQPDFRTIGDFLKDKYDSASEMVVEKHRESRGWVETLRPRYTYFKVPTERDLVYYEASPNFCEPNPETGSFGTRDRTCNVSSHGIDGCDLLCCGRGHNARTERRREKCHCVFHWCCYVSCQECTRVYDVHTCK

P388/ADR = experiment: cells; assay type: functional; settings: Mus musculus
[9] = target: T3, DNA repair protein RAD52 homolog (Homo sapiens, UniProt P43351); assay type: functional, biochemical
T3 sequence (P43351 whole entry): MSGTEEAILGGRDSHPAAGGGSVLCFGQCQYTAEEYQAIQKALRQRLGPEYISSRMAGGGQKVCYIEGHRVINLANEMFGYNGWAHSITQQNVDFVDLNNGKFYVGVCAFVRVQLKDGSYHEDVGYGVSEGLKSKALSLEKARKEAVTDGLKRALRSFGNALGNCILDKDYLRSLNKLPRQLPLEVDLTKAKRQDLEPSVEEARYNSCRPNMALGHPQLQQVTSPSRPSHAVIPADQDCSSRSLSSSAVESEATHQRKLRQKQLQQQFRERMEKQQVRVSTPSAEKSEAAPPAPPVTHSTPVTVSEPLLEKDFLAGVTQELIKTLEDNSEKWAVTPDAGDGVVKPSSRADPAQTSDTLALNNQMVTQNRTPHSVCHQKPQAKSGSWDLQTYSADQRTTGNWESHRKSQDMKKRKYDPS

P388 = experiment: cells; assay type: functional; settings: Mus musculus
SN12K1 = experiment: cells; assay type: functional; settings: Homo sapiens
[10] = target: Photoreceptor-specific nuclear receptor (Homo sapiens, UniProt Q9Y5X4); assay type: functional, cell-based;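 further: CHO-S cells with Gal4-NCOR and VP16-NR2E3 two-hybrid luciferase reporter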
Sequence of Photoreceptor-specific nuclear receptor (Q9Y5X4 whole entry, the tested form may be a part): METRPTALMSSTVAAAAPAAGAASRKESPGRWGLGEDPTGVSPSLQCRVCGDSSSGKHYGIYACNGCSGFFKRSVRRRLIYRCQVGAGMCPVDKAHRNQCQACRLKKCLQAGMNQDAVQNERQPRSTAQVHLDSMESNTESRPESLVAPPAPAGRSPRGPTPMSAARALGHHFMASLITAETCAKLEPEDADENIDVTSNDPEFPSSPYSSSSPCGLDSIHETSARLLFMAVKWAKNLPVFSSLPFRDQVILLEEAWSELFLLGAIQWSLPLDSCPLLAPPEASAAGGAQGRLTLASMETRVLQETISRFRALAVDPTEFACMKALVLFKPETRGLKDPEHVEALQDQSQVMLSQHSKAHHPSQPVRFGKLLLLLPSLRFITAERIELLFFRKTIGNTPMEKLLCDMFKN

Genome polyprotein = Genome polyprotein (dengue virus type 2, UniProt P29990); experiment: Dengue-2 NS5 methyltransferase inhibitors, primary screen, biochemical, confirmation dose response (AID 588689); assay type: functional
Sequence of Genome polyprotein (P29990 2492-3391 limits assumed): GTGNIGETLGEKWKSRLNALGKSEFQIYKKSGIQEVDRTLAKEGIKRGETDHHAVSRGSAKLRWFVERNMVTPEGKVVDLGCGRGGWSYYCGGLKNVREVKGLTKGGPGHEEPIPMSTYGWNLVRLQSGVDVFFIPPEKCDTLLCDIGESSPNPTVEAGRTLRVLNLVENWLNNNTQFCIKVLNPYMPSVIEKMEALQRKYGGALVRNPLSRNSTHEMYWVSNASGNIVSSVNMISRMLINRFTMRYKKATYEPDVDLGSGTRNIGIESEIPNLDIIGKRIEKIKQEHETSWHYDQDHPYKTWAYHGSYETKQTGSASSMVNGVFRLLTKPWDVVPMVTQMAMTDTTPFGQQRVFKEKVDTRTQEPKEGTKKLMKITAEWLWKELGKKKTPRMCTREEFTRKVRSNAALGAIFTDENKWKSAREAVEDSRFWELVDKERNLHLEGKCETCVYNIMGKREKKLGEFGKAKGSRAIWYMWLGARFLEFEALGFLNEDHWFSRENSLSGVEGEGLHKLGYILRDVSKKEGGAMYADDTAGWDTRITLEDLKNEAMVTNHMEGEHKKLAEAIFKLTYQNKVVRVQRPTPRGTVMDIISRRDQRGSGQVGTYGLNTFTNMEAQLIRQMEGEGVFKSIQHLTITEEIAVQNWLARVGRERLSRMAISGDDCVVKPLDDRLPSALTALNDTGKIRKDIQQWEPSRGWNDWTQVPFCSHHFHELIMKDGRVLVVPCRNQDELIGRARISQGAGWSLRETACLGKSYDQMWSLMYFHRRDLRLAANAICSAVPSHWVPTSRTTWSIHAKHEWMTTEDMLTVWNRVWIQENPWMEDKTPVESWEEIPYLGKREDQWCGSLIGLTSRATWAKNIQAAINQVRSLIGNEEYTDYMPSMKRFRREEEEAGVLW

[11] = target: T4, Tyrosyl-DNA phosphodiesterase 2 (Homo sapiens, UniProt O95551); experiment: human TDP2 enzyme inhibitors, dose response, biochemical, epi absorbance, IC50 (AID 743297)
T4 sequence (O95551 whole entry): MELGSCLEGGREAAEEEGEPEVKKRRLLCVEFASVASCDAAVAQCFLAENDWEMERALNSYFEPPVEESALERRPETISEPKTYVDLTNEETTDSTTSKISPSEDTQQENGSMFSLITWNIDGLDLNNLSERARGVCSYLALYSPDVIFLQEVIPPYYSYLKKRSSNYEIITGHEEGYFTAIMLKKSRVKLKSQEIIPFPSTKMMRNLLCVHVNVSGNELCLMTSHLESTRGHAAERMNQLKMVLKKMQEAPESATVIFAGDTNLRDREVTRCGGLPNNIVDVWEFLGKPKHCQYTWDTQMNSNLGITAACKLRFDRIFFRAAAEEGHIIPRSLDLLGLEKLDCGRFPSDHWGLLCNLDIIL

[12] = target: T5, Mitochondrial peptide methionine sulfoxide reductase (Bos taurus, UniProt P54149); assay type: functional;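 further: absorbance read-out, biochemical high-throughput dose-response screen for MsrA inhibitors, confirmatory; recombinant bovine MsrA coupled to E. coli TrxB with NADPH and selenocystamine; potency is for inhibitors of MsrA activity on DMSO substrate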
T5 sequence (P54149 whole entry): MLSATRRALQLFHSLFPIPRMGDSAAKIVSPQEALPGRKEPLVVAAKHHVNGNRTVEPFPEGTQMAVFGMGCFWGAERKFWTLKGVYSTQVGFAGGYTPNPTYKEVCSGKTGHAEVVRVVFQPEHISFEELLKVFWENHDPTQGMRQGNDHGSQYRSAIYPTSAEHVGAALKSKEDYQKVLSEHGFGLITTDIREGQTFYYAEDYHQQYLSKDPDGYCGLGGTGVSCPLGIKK

[13] = off-target signal loss in HeLa-CEM21 co-culture – HeLa F-luc CTL cells, cherry-picked, counter-screen for HIV-1 Env fusion inhibitor project, dose response (AID 652040); assay type: functional, cell-based;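 further: potency for signal decrease marking cytotoxic or nonspecific inhibition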
[14] = inhibitors of clade B AD8 Env fusion, dose response, cell-based, cherry-pick (AID 652062); assay type: functional;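 further: luciferase signal from cell-cell fusion driven by HIV-1 clade B AD8 Env; potency is for inhibitors of fusion seen as a drop in luminescence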
[15] = CEM21 lymphoblast cell cytotoxicity, dose response, cytotoxicity control for viral fusion inhibitor project, CellTiter-Glo luminescence, cherry-picked (AID 652042); assay type: functional, cell-based;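 further: potency for signal decrease meaning cytotoxicity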
[16] = inhibitors of HIV Env-driven cell fusion, dose response, cherry-pick (AID 652057); assay type: functional, cell-based
[17] = ZM109 Env clade C HIV-1 fusion inhibitors, dose response, HeLa effector, CEM target cells, luciferase, cherry-pick (AID 652058); assay type: functional, cell-based
[18] = THP-1 cell cytotoxicity, dose response, cytotoxicity control for non-replicating M. tuberculosis project (AID 489025); assay type: functional
Nonstructural protein 1 = Nonstructural protein 1 (Influenza A virus, UniProt Q194T2); assay type: functional, Influenza A virus (A/California/07/2009(H1N1))
Sequence of Nonstructural protein 1 (Q194T2 whole entry): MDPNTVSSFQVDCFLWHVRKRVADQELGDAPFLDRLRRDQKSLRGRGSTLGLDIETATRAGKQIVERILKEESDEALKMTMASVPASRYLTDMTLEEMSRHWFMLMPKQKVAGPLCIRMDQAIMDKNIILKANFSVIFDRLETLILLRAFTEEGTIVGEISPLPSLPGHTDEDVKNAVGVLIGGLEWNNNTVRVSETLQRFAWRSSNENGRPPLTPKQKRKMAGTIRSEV

Cytochrome P450 2C9 = Cytochrome P450 2C9 (Homo sapiens, UniProt P11712)
Sequence of Cytochrome P450 2C9 (P11712 whole entry): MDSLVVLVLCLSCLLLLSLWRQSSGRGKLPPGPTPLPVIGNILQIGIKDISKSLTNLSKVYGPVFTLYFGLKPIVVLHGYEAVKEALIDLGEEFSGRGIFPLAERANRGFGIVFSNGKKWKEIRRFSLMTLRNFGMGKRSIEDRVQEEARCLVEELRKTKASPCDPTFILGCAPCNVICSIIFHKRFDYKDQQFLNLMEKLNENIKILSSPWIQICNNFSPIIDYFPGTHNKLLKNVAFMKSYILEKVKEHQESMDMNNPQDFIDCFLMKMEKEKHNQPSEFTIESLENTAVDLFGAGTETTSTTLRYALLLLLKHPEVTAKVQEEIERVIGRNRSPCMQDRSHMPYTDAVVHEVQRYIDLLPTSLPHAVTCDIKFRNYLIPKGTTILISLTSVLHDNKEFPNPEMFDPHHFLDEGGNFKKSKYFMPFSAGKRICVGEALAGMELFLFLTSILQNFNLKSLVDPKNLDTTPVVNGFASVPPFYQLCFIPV

[19] = HeLa cell cytotoxicity, dose response, cytotoxicity control for MgcRacGAP inhibitor project (AID 624300); assay type: functional
[20] = target: T6, Rac GTPase-activating protein 1 (Homo sapiens, UniProt Q9H0H5); experiment: MgcRacGAP GTPase-activating activity inhibitors, confirmation, biochemical, ADP Hunter fluorescence, primary and confirmatory (AID 624330); assay type: functional
T6 sequence (Q9H0H5 whole entry): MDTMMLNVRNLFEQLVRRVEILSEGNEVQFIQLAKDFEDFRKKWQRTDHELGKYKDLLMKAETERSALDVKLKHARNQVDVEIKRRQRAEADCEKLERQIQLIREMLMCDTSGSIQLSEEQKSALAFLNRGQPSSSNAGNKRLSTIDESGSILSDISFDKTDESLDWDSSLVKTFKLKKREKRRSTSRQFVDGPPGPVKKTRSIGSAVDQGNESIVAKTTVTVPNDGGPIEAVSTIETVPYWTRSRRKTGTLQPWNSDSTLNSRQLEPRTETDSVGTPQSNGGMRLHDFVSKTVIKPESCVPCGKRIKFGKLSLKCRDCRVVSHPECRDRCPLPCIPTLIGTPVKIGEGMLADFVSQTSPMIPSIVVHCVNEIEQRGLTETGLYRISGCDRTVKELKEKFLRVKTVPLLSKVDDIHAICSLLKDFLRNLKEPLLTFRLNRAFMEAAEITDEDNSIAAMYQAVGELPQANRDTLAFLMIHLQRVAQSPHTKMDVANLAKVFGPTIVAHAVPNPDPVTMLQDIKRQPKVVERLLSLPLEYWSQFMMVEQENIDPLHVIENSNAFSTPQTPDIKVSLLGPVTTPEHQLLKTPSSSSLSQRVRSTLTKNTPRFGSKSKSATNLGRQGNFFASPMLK

Large T antigen = Large T antigen (Simian virus 40, UniProt P03070); assay type: functional, Betapolyomavirus macacae;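 further: Confirmatory-stage PubChem screen for compounds that inhibit SV40 T antigen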
Sequence of Large T antigen (P03070 whole entry): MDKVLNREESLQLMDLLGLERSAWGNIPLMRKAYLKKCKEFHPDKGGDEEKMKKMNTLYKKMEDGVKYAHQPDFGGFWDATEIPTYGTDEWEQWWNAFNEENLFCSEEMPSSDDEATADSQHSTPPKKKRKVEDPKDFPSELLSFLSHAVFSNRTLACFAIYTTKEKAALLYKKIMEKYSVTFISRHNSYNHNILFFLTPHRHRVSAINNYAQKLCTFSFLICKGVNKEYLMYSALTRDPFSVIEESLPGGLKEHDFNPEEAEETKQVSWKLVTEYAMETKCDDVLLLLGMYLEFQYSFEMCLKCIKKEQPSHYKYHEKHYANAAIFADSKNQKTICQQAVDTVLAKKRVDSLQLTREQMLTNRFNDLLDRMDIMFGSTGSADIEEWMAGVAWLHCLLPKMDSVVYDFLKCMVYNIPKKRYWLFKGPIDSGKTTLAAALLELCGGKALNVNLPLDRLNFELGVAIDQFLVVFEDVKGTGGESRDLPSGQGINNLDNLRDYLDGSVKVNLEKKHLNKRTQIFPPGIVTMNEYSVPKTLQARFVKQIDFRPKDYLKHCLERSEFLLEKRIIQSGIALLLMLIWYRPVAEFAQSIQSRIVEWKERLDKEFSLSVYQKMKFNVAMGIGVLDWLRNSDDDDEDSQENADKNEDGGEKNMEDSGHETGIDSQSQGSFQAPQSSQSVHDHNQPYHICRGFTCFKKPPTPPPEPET

Sequence of Nuclear receptor subfamily 5 group A member 2 (O00482 whole entry): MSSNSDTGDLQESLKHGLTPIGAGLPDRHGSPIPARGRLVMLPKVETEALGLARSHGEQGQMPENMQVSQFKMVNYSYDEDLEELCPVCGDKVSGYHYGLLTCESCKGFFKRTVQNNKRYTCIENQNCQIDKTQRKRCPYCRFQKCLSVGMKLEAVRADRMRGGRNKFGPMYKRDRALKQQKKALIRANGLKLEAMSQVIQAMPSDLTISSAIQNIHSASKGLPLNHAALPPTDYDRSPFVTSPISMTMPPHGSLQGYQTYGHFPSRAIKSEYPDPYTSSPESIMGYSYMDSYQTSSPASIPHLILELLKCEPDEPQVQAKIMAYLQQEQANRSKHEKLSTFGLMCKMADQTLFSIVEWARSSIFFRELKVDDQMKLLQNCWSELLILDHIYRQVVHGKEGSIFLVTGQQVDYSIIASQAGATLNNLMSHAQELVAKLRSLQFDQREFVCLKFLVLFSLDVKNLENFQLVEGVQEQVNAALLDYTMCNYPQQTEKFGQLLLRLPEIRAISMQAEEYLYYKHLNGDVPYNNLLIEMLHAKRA

For `CC(=O)Nc1ccc(Nc2cc([N+](=O)[O-])cc(Cl)[n+]2[O-])cc1`, the IC50 [1] was 5.74 µM (active), the IC50 [2] was 35.9 µM (inactive) and the IC50 (Steroidogenic factor 1) was 1.56 µM (active).

In the case of `CC1CCN(S(=O)(=O)c2ccc(NC(=O)Cn3nnc(-c4ccccc4F)n3)cc2)CC1`, the EC50 [3] is reported as > 60 µM (not active), the EC50 [4] is reported as 2.23 µM (active) and the IC50 (Albumin) is reported as > 94.1 µM (inactive).

In the case of `NC(=S)N1OC[C@@H]2COc3ccc4ccccc4c3[C@@H]21`, the IC50 (Interleukin-8) is reported as 8.34 µM (active).

With `COc1cc(CN2CCc3ccccc3C2)cc([N+](=O)[O-])c1O` the IC50 [5] was 6.77 µM (active), the EC50 (cells [6]) was > 29.9 µM (inactive) and the IC50 (cells [7]) was > 29.9 µM (inactive). The EC50 [8] was 1.01 µM (active).

In the case of `CC(Oc1ccc(S(=O)(=O)N2CCCC2)cc1[N+](=O)[O-])C(=O)NC(C)c1ccccc1` (stereo not given), the IC50 [1] is reported as 11.8 µM (inactive), the IC50 [2] is reported as 20.1 µM (inactive) and the IC50 (Steroidogenic factor 1) is reported as 7.26 µM (active).

With `COC(=O)Nc1ccc(S(=O)(=O)NNC(=O)c2c(O)c3ccccc3[nH]c2=O)cc1` the IC50 (Albumin) was > 94.1 µM (inactive).

With `O=C(Nc1cc(N2CCOCC2)ncn1)c1ccccc1` the IC50 (Protein Wnt-3a) was > 21.8 µM (inactive).

For `O=C(Cc1ccc(S(=O)(=O)N2CCCC2)s1)Nc1cccc([N+](=O)[O-])c1`, the IC50 [1] was 13 µM (inactive), the IC50 [2] was 35.9 µM (inactive) and the IC50 (Steroidogenic factor 1) was 6.79 µM (active).

With `COc1cc2c(oc(=O)c3cc(C)cc(OC)c32)c2c(C3OC(C)C(O)C(C)(O)C3O)ccc(O)c12` (stereo not given) the GI50 (P388/ADR) was 0.219 µM (active), the AC50 [9] was 18.8 µM (active) and the GI50 (P388) was 0.171 µM (active). For the same molecule, the GI50 (SN12K1) was 0.349 µM (active) and the IC50 [10] was 12.7 µM (inactive).

With `O=C(O)c1ccc(NC2=C/C(=N/S(=O)(=O)c3cccs3)c3ccccc3C2=O)cc1` the IC50 (Genome polyprotein) was 58.1 µM (active), the IC50 [11] was 0.817 µM (active) and the IC50 [12] was 4.82 µM (active).

For `CN(C)C(=O)c1cccc(-c2cnc3sc(NCc4ccc5c(c4)OCO5)nn23)c1`, the AC50 [13] was 3.03 µM (active), the AC50 [14] was 4.18 µM (active) and the AC50 [15] was 66.1 µM (active). For the same molecule, the AC50 [16] was 4.47 µM (active), the IC50 (Interleukin-8) was 11.8 µM (inactive) and the AC50 [17] was 4.54 µM (active).

For `Cc1nc(NC(=O)c2ccccc2)cc(N2CCCCC2)n1`, the IC50 (Protein Wnt-3a) was > 21.8 µM (inactive).

For `O=C(Nc1cc(N2CCSCC2)ncn1)c1ccccc1`, the IC50 (Protein Wnt-3a) was > 21.8 µM (inactive).

For `O=C(N/N=C/c1cccc([N+](=O)[O-])c1O)c1cccs1`, the CC50 [18] was 32.4 µM (active), the IC50 (Nonstructural protein 1) was 7.41 µM (active) and the IC50 (Albumin) was > 94.1 µM (inactive).

With `CCOc1ccc(/C=N/CC(O)c2ccccc2)cc1` (stereo not given) the IC50 [5] was 3.27 µM (active), the EC50 (cells [6]) was > 29.9 µM (inactive) and the IC50 (cells [7]) was > 29.9 µM (inactive). The EC50 [8] was 0.769 µM (active).

In the case of `COc1ccc(C(=O)NNC(=O)CSc2nnc(COc3ccc4ccccc4c3)n2C)cc1`, the IC50 [5] is reported as > 29.9 µM (inactive), the AC50 (Cytochrome P450 2C9) is reported as “inconclusive” and the EC50 (cells [6]) is reported as > 29.9 µM (inactive). For the same molecule, the IC50 (cells [7]) was > 29.9 µM (inactive) and the EC50 [8] was > 29.9 µM (inactive).

In the case of `COc1cc(/C=C2\SC(=N)NC2=O)ccc1O`, the CC50 [19] is reported as 69.1 µM (active), the IC50 [20] is reported as 11.8 µM (active) and the IC50 (Large T antigen) is reported as 5.02 µM (active).
